Source: patent publication US5859032A, “Pyridine derivative, anti-ulcer drug, and antibacterial drug” (priority 1996, dated 1999)

Key:
[1] = tested on: stress ulcer formation (rats); assay: WIS: Restraint and Water Immersion Stress-Induced Ulcer Inhibition Test; assay type: in vivo, rat (male Crj:SD or Slc:SD); conditions: rat, 100 mg/kg, oral, 7 hours water immersion stress
Protocol: WIS: Restraint and Water Immersion Stress-Induced Ulcer Inhibition Test
The degree of inhibition of the stress ulcer formation is tested.
Male Crj:SD or Slc:SD rats (6 to 7-week-old) were fasted overnight, but allowed free access to water. Each group has 5 to 8 of these rats. […] To a control group, the vehicle was administered. 10 minutes later, the rats were placed in a stress cage and immersed to the level of xipfoid process in a water bath (21° C.) for 7 hours. At the end of the stress, the rats were sacrificed by inhalation of ether or carbon dioxide. Then, the stomach of each was removed, inflated by injecting 10 ml of 5% formalin neutral buffer solution, and immersed in 1% formalin neutral buffer solution for 30 minutes or more to be fixed. The stomach was incised along the greater curvature and then the length of each erosion in the glandular portion was determined under dissecting microscope. The sum of the length of erosions per stomach was defined as ulcer index (UI).
The effect obtained when 100 mg/kg of the sample compound had been administered was expressed as ulcer formation inhibitory rate (%) as follows:
ulcer formation inhibitory rate (%)=(1-(UI in sample group/UI in control

[2] = tested on: isolated gastric fundic gland; assay: CAP: Acid Secretion Inhibition Test In Vitro ([14C]-aminopyrine uptake test); assay type: cell-based, Japanese White rabbit; conditions: 10^-5 M, histamine 10^-5 M, 37° C.; for inhibition at 10 µM: Oryctolagus cuniculus, 40 min, read-out: CAP: acid secretion inhibitory rate
Protocol: CAP: Acid Secretion Inhibition Test In Vitro
The acid secretion inhibitory activity in a cell level is studied. It can also be used for studying the mechanism of the effect. […]
ii-a) Preparation of isolated gastric fundus gland suspension
First, an isolated gastric fundic gland sample was prepared. Namely, a male Japanese White rabbit (2.5 to 3 kg) was anesthetized to death with Nembutal™ and then the abdomen was incised. Immediately thereafter, the stomach was removed and, after its pyloric and cardiac antrum were severed, incised along its greater curvature into two sheets. The gastric contents adhering to the mucosal surface was washed out with ice-cooled PBS (-) and then carefully washed therein. The gastric wall was spread on a cork board with its mucosal surface facing up and the feed and mucus thereon were completely removed with sterile gauze. The mucosa was separated therefrom by a spatula and then collected in ice-cooled PBS (-). After being washed twice with PBS (-), the mucosa was minced into 2-3 mm^3 pieces by scissors. These pieces were further washed twice with a nutrient solution. The nutrient solution comprises 132.4 mM of NaCl, 5.4 mM of KCl, 5 mM of Na2 HPO4. 12H2 O, 1 mM of NaH2 PO4. 2H2 O, 1.2 mM of MgSO4, 1 mM of CaCl 2, 25 mM of HEPES, 2 mg/ml of glucose, and 1 mg/ml of BSA. Into 70 ml of the nutrient solution containing 1 mg/ml of collagenase, minced mucosal pieces were dispersed and intensely stirred in a conical flask with a stirrer at 37° C. for 40 to 60 minutes. During this period, 100% O2 was sprayed on the nutrient solution surface and the pH was appropriately measured such that it was immediately adjusted to pH 7.4, when the value was therebelow, with a base. The nutrient solution was added to the reaction solution so as to attain the total amount of about 200 ml. After being filtered through a mesh, the suspension was divisionally introduced into 50 ml centrifuge tubes and left for 15 minutes such that gastric fundic gland was deposited. The supernatant was repeatedly removed by an aspirator, dispersed in the nutrient solution, and then left such that the gastric fundic gland was washed three times. At this time, without using a pipette, the suspension was alternately introduced into two centrifuge tubes so as to effect dispersion. The number of cells was counted under microscope and adjusted to 1.6×10^6 cells/ml. […]
ii-b) [^14 C]-aminopyrine uptake test
Then, [^14 C]-aminopyrine uptake test was performed. After an Eppendorf tube was weighed, 10 μl (final concentration: 10^-5 M) of histamine dissolved in the above-mentioned nutrient solution, 10 μl (final concentration: 10^-5 M) of the test compound dissolved in DMSO, and 10 μl (final concentration: 0.05 μCi/ml) of [^14 C]-aminopyrine diluted with the nutrient solution were introduced therein and then 970 μl of the isolated gastric fundic gland suspension prepared above was added thereto. Subsequently, this mixture was shaken at 37° C. for 40 minutes at 125 cycles/minute. After being centrifuged for 30 minutes, 200 μl of its supernatant was collected into a mini-vial, while the rest was removed by an aspirator. The gland pellet was completely dried as the tube with its lid being opened was kept for one night in a drying oven at 80° C. and then the lid was closed and the weight was determined at room temperature. Then 100 μl of 1N KOH was added thereto and the tube with its lid being closed was treated at 60° C. for 1 to 2 hours so as to dissolve the pellet. Then, the contents thereof were transferred to a mini-vial. Into the mini-vial containing the supernatant or gland pellet, 4 ml of Atomlite™ was added and then the radioactivity was measured by a liquid scintillation counter. Here, after the radioactivity of the gland pellet was corrected by using a sample in which 20 mM of NaSCN was added so as to cancel the hydrogen ion concentration gradient, the integration ratio of aminopyrine specifically trapped by the gland pellet was calculated. […]

[3] = MTT: Cell Damaging and Protecting Effect Test; assay type: cell-based, Japanese White rabbit; conditions: rabbit, gastric mucosa cells, 10^-4 M, 37° C., smaller value is better, read-out: MTT: cell damaging rate
Description: MTT: Cell Damaging and Protecting Effect Test
It is confirmed that there is no toxicity in cell level. Those having a toxicity in cell level are inappropriate as an anti-ulcer drug.
A male Japanese White rabbit (2.5 to 3 kg) was anesthetized to death by Nembutal™ and, immediately thereafter, its stomach was removed. The greater curvature of the stomach was incised so as to remove the stomach contents therefrom. After the mucosal surface was washed with HBSS (Hanks' Balanced Salt Solution), the stomach in ice-cooled HBSS was transferred to a laboratory. Then, after the pyloric antrum was removed, the gastric corpus mucosa was separated by a spatula and then minced into 2 to 3 mm^3 pieces in BME (Basal Medium Eagle). Thereafter, these pieces were shaken at 120 to 130 cycles/minute for 15 minutes at 37° C. in BME 60 ml containing 280 U/ml of dispase and 30 to 50 U/ml of collagenase. Here, the concentration of collagenase was appropriately changed for each lot in view of the state of cells. The pieces were washed twice with EBSS (Earle's Balanced Salt Solution) containing 1 mM of EDTA and then shaken in MEM (Minimum Essential Medium) containing 1 mM of EDTA at 37° C. for 5 minutes. Subsequently, they were shaken in the dispase and collagenase having the same concentrations as those mentioned above for 15 minutes so as to remove the supernatant and then further shaken at 37° C. for 50 to 60 minutes at 120 to 130 cycles/minute. Then, after being washed twice with HBSS, Ham F12 containing 2% of Ultrocer GT™ was used to attain the concentration of 1×10^6 cells/ml. Thus formed suspension was dispensed in each well of a 96-well plate by 200 μl. The plate was incubated in the atmosphere composed of 5% CO2 and 95% air at 37° C. for three days so as to attain a confluent state and then subjected to MTT assay.
The sample compound was dissolved in DMSO so as to attain a concentration of 10^-2 M and then diluted with HBSS containing 2% of Ultrocer G™ so as to attain a final concentration of 10^-4 M. To each group, which 8 wells were used for, 10 μl of MTT reagent was added immediately after 100 μl of the medium in each well was exchanged for same volume of the resulting solution of the sample compound. After being incubated in an atmosphere composed of 5% CO2 and 95% air at 37° C. for 4 hours, thus formed solution was centrifuged and then its supernatant was discarded. Subsequently, 100 μl of 100% ethanol was added to the residue so as to dissolve MTT formazan. Then, the absorbance (OD: 570 to 630) was measured by a microplate reader. This method utilizes a phenomenon in which MTT is changed to MTT formazan only by mitochondria of living cells so as to change color.
The cell damaging or cell protecting effect of the sample compound at the final concentration of 10^-4 M was expressed as cell damaging rate (%) as follows:
cell damaging rate (%)=(1-(absorbance in sample group/absorbance in control
Accordingly, the smaller value is better in the cell damaging rate.

[4] = tested on: gastric acid secretion (pylorus-ligated, histamine-stimulated rats); assay: VOL, TAO: Acid Secretion Inhibition Test In Vivo; parameters: species or system rat (male Crj:Donryu); conditions: rat, 100 mg/kg, oral; histamine 30 mg/kg s.c.
Protocol: VOL, TAO: Acid Secretion Inhibition Test In Vivo
Inhibitory effect on acid secretion in vivo is confirmed.
Male Crj:Donryu rats (7-week-old) were fasted overnight but allowed free access to water. In each group, 8 to 10 of these rats were used under urethane anesthesia (1.25 g/kg). […] 30 minutes later, the abdomen of each was incised and the pylorus was ligated. 30 minutes after the ligation, 30 mg/kg of histamine dissolved in physiological saline was subcutaneously administered and, 3 hours thereafter, the rat was sacrificed with carbon dioxide. Immediately thereafter, each stomach was removed and the gastric contents were collected and each volume was determined. The total acid output was determined by titration of the gastric juice with 0.1N NaOH.
With respect to the gastric juice volume (VOL) and the total acid output (TAO), the effects obtained when 100 mg/kg of the sample compound had been administered were expressed as their respective inhibitory rates (%) as follows:
each inhibitory rate (%)=(1-(value in sample group/value in control

[5] = tested on: gastric mucosa; assay: PD: Gastric Mucosal Integrity Test; assay type: in vivo, rat (male CDj:SD); parameters: key: 5: Same as the control with no recognizable damage at all.; 4: Though a slight PD-decreasing tendency suggesting a slight possibility of mucosal damage is found, there is no problem.; 3: Though a weak decrease in PD and a possibility of a weak mucosal damage is recognized, there is no substantial problem.; 2: Medium degree of decrease in PD is found and a mucosal damage is recognized.; 1: Heavy degree of decrease in PD is found and a remarkable mucosal damage is recognized; conditions: rat, 100 mg/kg into chamber, 60 minutes
Protocol: PD: Gastric Mucosal Integrity Test
In this case, since the sample compound has a necrotizing effect, it is inappropriate as an anti-ulcer medicament.
Therefore, the gastric mucosal potential difference (PD), which reflects the integrity of the gastric mucosa, is measured so as to confirm that the sample compound has no damaging effect on gastric mucosa, which is toxicity at gastric mucosal level.
Male CDj:SD rats (7 to 8-week-old) were fasted overnight, but allowed free access to water, and then, under urethane anesthesia (1.25 g/kg, i.p.), fixed to a cork board on its back. The abdomen of each rat was incised, and a small incision was made in the forestomach. Then, the inside of the stomach was washed with physiological saline heated at 37° C. From the forestomach, along the greater curvature thereof, the stomach was incised without damaging blood vessels. After the height of the cork board was adjusted on a jack, the stomach was mounted on ex vivo chamber. The area of the gastric mucosa exposed to the inside of this chamber was 2.5 cm^2. The inside of the chamber was perfused with physiological saline warmed at 37° C. by micro tube pump. By using an agar bridge containing 3M KCl, the potential difference between the chamber and the abdominal cavity was measured by a PD meter. Here, the rectal temperature was measured to control the body temperature during the experiment. […] To a control, the vehicle was administered.
The change in PD during 60 minutes after the administration of 100 mg/kg of the sample compound was collectively studied and, with reference to the positive control, classified into 5 levels as follows:
5: Same as the control with no recognizable damage at all.
3: Though a weak decrease in PD and a possibility of a weak mucosal damage is recognized, there is no substantial problem.
2: Medium degree of decrease in PD is found and a mucosal damage is recognized.
1: Heavy degree of decrease in PD is found and a remarkable mucosal damage is recognized.

[6] = tested on: mice; conditions: mouse, in vivo
Protocol: AT: Single Dose Toxicity Pretest
Male Slc:ICR mice (5-week-old) were used. Each group has 3 to 5 mice and each mouse was fasted, but allowed free access to water, for 4 to 5 hours from 9 a.m. in the test day. Then, 2,000 mg/10 ml/kg of the sample compound dissolved or suspended in an aqueous solution of 0.5% sodium carboxymethyl cellulose was orally administered thereto. To a control, only the vehicle was administered. […] The body weight was measured before and after the fasting as well as at the same time everyday. The dead animals were immediately subjected to autopsy and their organs were observed microscopically. Also, the living animals were sacrificed with ether or carbon dioxide one week after the administration and then their organs were observed microscopically.
The toxicity at the single dose of 2,000 mg/kg of the sample compound was expressed as being classified into 5 levels.
5: Mortality rate is 0%; no toxicity is found at all both in behavior and organs.
4: Mortality rate is 0%; while no toxicity is found in organs, slight toxicity is observed in behavior and body weight increase.
3: While there is a dead animal (though not all the animals are dead), no toxicity is found in organs.
2: Regardless of whether there is a dead animal or not, toxicity is found in organs.
1: All the animals are dead.

Compound | WIS: ulcer formation inhibitory rate [1] [%] | inhibition at 10 µM [2] [%] | cytotoxicity at 4 h, 100 µM [3] [%] | TAO: total acid output inhibitory rate [4] [%] | VOL: gastric juice volume inhibitory rate [4] [%] | PD: change in gastric mucosal potential difference (5 levels) [5] | AT: toxicity at the single dose (5 levels) [6] | CAP: acid secretion inhibitory rate ([2]; 40 minutes) [%]
CC(C)=CCC/C(C)=C/COc1ccc(OC/C=C(\C)CCC=C(C)C)c(C(=O)NCCc2ccncc2)c1 [Example 5, 4-[2-(2,5-digeranyloxybenzoylamino)ethyl]pyridine] | 35 | 99 | -17 |  |  |  |  | 
COc1ccc(NCCNC(=O)c2ccc(OC/C=C(\C)CCC=C(C)C)cc2)cn1 [Example 9, 3-[2-(4-geranyloxybenzoylamino)ethylamino]-6-methoxypyridine] | 42 | 77 | 8 |  |  |  |  | 
CC(C)=CCC/C(C)=C/COc1ccc(C(=O)NCCSc2ccc(C(F)(F)F)cn2)cc1 [Example 12, 2-[2-(4-geranyloxybenzoylamino)ethylthio]-5-trifluoromethylpyridine] | 37 |  | -14 | -10 | -5 | 5 | 5 | 
CC(C)Cc1cc(C(=O)NCCc2ccncc2)ccc1OCc1ccc(F)cc1 [Example 14, 4-[2-[4-(4-fluorobenzyloxy)-3-isobutylbenzoylamino]ethyl]pyridine] | 91 | 97 |  |  |  |  | 4 | 
CC(C)Cc1cc(C(=O)NCCc2ccncc2)ccc1OCc1ccc(F)cc1.Cl [Example 15, 4-[2-[4-(4-fluorobenzyloxy)-3-isobutylbenzoylamino]ethyl]pyridine hydrochloride] | 86 |  |  |  |  |  |  | 95.1
